Activity calls are given as the source filed them. No cut-off for these calls is given here.
Experiments:
BV-2 [1] = assay: Anti-neuroinflammatory activity against LPS-stimulated mouse BV-2 cells assessed as inhibition of NO production at 1 uM; type: functional; design: scale not given: the % may be the effect or the level left
[2] = Cytotoxicity against LPS stimulated mouse BV-2 cells assessed as cell survival at 10 uM by MTT assay; type: toxicity, cell-based; conditions: LPS-stimulated BV-2 cells, read-out: Activity
BV-2 [3] = assay: Anti-neuroinflammatory activity against LPS-stimulated mouse BV-2 cells assessed as inhibition of NO production at 10 uM; type: functional; design: scale not given: the % may be the effect or the level left
BV-2 [4] = assay: Anti-neuroinflammatory activity against LPS-stimulated mouse BV-2 cells assessed as inhibition of NO production; type: functional, cell-based
PC12 = assay: Neuroprotective activity against 6-OHDA induced oxidative damage in […] cells assessed as increase in cell viability preincubated for 4 hrs followed by 6-OHDA stimulation and measured after 24 hrs by MTT assay (reference value: 48.6%); type: functional, cell-based; conditions: Rattus norvegicus, dose 1-10 µM, time 28.0 hrs
[5] = Cytotoxicity against […] cells assessed as cell survival at 20 uM by MTT assay; type: toxicity, cell-based, Rattus norvegicus; conditions: read-out: Survival
[6] = target: Acetylcholinesterase (Electrophorus electricus) (UniProt O42275); assay: Inhibition of electric eel AChE at 20 uM using […] as substrate pretreated for 20 mins prior to DTNB addition for 30 mins followed by substrate addition and measured after 45 mins by Ellman's method relative to control; conditions: time 95.0 min
Chain of Acetylcholinesterase (Electrophorus electricus) (O42275 24-633 limits assumed): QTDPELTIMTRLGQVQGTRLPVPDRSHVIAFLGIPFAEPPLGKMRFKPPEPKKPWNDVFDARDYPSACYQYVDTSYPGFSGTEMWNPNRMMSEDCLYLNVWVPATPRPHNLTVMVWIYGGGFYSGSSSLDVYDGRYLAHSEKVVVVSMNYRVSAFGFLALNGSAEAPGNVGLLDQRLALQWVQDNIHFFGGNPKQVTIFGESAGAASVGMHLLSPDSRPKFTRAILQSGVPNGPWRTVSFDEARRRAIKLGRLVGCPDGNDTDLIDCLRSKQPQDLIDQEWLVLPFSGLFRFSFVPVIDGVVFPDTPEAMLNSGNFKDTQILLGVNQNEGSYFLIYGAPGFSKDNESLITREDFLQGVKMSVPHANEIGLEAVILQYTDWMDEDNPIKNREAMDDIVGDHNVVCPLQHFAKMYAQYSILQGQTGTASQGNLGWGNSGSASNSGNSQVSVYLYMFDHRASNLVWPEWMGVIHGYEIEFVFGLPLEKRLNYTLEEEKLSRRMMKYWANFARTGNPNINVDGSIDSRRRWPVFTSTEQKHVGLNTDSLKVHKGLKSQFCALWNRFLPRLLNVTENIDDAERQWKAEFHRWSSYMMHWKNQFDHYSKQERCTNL

[7] = target: Amyloid-beta precursor protein (Homo sapiens) (UniProt P05067); assay: Inhibition of self-induced amyloid beta (1 to 42 residues) (unknown origin) aggregation at 5 to 20 uM by thioflavin T based fluorescence analysis; conditions: dose 5-20 µM
Chain of Amyloid-beta precursor protein (Homo sapiens) (P05067 whole entry, the tested form may be a part): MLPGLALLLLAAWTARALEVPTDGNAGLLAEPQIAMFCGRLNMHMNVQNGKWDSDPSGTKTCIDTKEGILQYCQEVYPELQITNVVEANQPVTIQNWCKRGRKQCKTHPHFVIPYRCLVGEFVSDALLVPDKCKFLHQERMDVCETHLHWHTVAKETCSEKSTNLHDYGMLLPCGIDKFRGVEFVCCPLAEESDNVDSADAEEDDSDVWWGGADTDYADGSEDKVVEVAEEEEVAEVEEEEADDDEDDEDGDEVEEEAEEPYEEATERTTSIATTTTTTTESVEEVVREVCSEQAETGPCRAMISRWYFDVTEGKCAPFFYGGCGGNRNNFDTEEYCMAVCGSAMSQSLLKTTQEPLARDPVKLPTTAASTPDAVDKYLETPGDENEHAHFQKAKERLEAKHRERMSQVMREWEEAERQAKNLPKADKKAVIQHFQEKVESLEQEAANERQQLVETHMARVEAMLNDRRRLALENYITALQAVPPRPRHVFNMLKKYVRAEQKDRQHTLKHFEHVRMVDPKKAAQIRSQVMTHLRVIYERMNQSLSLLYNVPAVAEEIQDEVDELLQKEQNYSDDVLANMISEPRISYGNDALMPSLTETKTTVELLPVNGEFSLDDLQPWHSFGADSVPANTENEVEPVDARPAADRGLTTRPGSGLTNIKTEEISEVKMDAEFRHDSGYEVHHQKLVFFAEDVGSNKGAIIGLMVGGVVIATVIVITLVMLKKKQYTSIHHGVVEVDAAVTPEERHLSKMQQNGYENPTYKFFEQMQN

HT-22 = assay: Neuroprotective activity against RSL3 induced ferroptosis in mouse HT-22 cells assessed as increase in cell viability at 10 uM preincubated for 4 hrs followed by RSL3 stimulation and measured after 24 hrs by MTT assay (reference value: 52.1%); type: functional; conditions: time 28 hrs
[8] = Cytotoxicity against mouse HT-22 cells assessed as cell survival at 20 uM by MTT assay; type: toxicity, cell-based; conditions: read-out: Survival
[9] = target: Amyloid-beta precursor protein (Homo sapiens) (UniProt P05067); assay: Inhibition of self-induced amyloid beta (1 to 42 residues) (unknown origin) aggregation at 20 uM by thioflavin T based fluorescence analysis
[10] = Drug distribution in ICR mouse lung measured at 60 mins by micro-PET/CT imaging analysis; type: ADME, tissue-based; conditions: in vivo, 1 h
[11] = Drug distribution in ICR mouse liver measured at 1.25 mins by micro-PET/CT imaging analysis; type: ADME, tissue-based; conditions: in vivo, 75 s
[12] = Drug distribution in ICR mouse kidney measured at 60 mins by micro-PET/CT imaging analysis; type: ADME, tissue-based; conditions: in vivo, 1 h
[13] = Drug distribution in ICR mouse brain measured after 4 to 5 mins by micro-PET/CT imaging analysis; type: ADME, tissue-based; conditions: in vivo, time 4-5 min
[14] = Drug distribution in ICR mouse heart measured at 60 mins by micro-PET/CT imaging analysis; type: ADME, tissue-based; conditions: in vivo, 1 h
[15] = Drug distribution in ICR mouse heart measured at 1.25 mins by micro-PET/CT imaging analysis; type: ADME, tissue-based; conditions: in vivo, 75 s
[16] = Drug distribution in ICR mouse brain measured at 60 mins by micro-PET/CT imaging analysis; type: ADME, tissue-based; conditions: in vivo, 1 h
[17] = Drug distribution in ICR mouse kidney measured at 1.25 mins by micro-PET/CT imaging analysis; type: ADME, tissue-based; conditions: in vivo, 75 s
[18] = Drug distribution in ICR mouse bone measured at 1.25 to 57.5 mins by micro-PET/CT imaging analysis; type: ADME, tissue-based, Bone element; conditions: in vivo, time 1.25-57.5 min
[19] = Drug distribution in ICR mouse brain measured at 1 mins by micro-PET/CT imaging analysis; type: ADME, tissue-based; conditions: in vivo
[20] = Drug distribution in ICR mouse muscle measured at 1.25 to 57.5 mins by micro-PET/CT imaging analysis; type: ADME, tissue-based, Muscle tissue; conditions: in vivo, time 1.25-57.5 min
[21] = Drug distribution in ICR mouse brain measured at 1.25 mins by micro-PET/CT imaging analysis; type: ADME, tissue-based; conditions: in vivo, 75 s
[22] = Drug distribution in ICR mouse lung measured at 1.25 mins by micro-PET/CT imaging analysis; type: ADME, tissue-based; conditions: in vivo, 75 s
[23] = Drug distribution in ICR mouse liver measured at 60 mins by micro-PET/CT imaging analysis; type: ADME, tissue-based; conditions: in vivo, 1 h
[24] = Drug distribution in ICR mouse kidney measured at 5.5 mins by micro-PET/CT imaging analysis; type: ADME, tissue-based; conditions: in vivo
BV-2 [25] = assay: Antiinflammatory activity against LPS induced mouse BV-2 cells assessed as increase in IL-10 expression at 0.5 to 2.5 uM incubated for 24 hrs by ELISA; type: functional, cell-based; conditions: dose 0.5-2.5 µM
BV-2 [26] = assay: Antiinflammatory activity against LPS induced mouse BV-2 cells assessed as decrease in COX2 expression incubated for 24 hrs by Western blotting analysis; type: functional, cell-based; conditions: dose 0.1-2.5 µM
BV-2 [27] = assay: Antiinflammatory activity against LPS induced mouse BV-2 cells assessed as decrease in PGE2 expression incubated for 24 hrs by ELISA; type: functional, cell-based; conditions: dose 0.1-2.5 µM
BV-2 [28] = assay: Antiinflammatory activity against LPS induced mouse BV-2 cells assessed as decrease in iNOS expression incubated for 24 hrs by Western blotting analysis; type: functional, cell-based; conditions: dose 0.1-2.5 µM
BV-2 [29] = assay: Antiinflammatory activity against LPS induced mouse BV-2 cells assessed as increase in arginase-1 expression at 0.5 to 2.5 uM incubated for 24 hrs by ELISA; type: functional, cell-based; conditions: dose 0.5-2.5 µM
BV-2 [30] = assay: Antiinflammatory activity against LPS induced mouse BV-2 cells assessed as decrease in TNFalpha expression incubated for 24 hrs by ELISA; type: functional, cell-based; conditions: dose 0.1-2.5 µM

| Structure (SMILES) | Activity (BV-2 [1]) [%] | viability at 10 µM [2] [%] | Activity (BV-2 [3]) [%] | other results |
| --- | --- | --- | --- | --- |
| C=C(C)CO/N=C(\Cn1ccnc1)c1ccc(N(C)C)cc1 | 28.1 | 98.6 | 46.3 |  |
| C#CCO/N=C(/Cn1ccnc1)c1ccc2c(c1)OCO2 | 13.4 | 98.4 | 25.5 | EC50 (BV-2 [4]): > 20000 nM; Activity (PC12): Dose-Dependent Effect; viability at 20 µM [5]: > 95% |
| CN(C)c1ccc(/C(Cn2ccnc2)=N/OC(=O)CCc2ccccc2)cc1 | 31.5 | 92.5 | 31.4 |  |
| CN(C)c1ccc(/C(Cn2ccnc2)=N/OCc2ccccc2)cc1 | 27.6 | 97.3 | 48.7 |  |
| C#CCO/N=C(\Cn1ccnc1)c1ccc(C(=O)OC)cc1 | 36 | 105 | 72.7 |  |
| C#CCO/N=C(\Cn1ccnc1)c1ccc(N(C)C)cc1 | 30.9 | 103 | 49.6 | inhibition [6]: 70.3%; EC50 (BV-2 [4]): 6780 nM; inhibition [7]: Active; Activity (HT-22): 62.5%; Activity (PC12): Dose-Dependent Effect; viability at 20 µM [5]: > 95%; viability at 20 µM [8]: > 90% |
| CN(C)c1ccc(/C(Cn2ccnc2)=N/OC(=O)/C=C/c2ccc3c(c2)OCO3)cc1 | 22.2 | 96.7 | 34.2 | EC50 (BV-2 [4]): 15700 nM; Activity (PC12): Dose-Dependent Effect; viability at 20 µM [5]: > 95% |
| CN(C)c1ccc(/C(Cn2ccnc2)=N/OC(=O)/C=C/c2ccc(Cl)cc2)cc1 | 41.2 | 85.6 | 54.1 |  |
| OC(Cn1ccnc1)c1ccc2c(c1)OCO2 (racemic) | 21.4 | 97.1 | 68.9 |  |
| Cc1c(CO)ncn1CC(=O)c1ccc2c(c1)OCO2 | 27.4 | 99.8 | 37.7 |  |
| C#CCO/N=C(\Cn1ccnc1)c1ccc(C(=O)NO)cc1 | 36.2 | 109 | 70.5 | EC50 (BV-2 [4]): 5610 nM; Activity (PC12): Dose-Dependent Effect; viability at 20 µM [5]: > 95% |
| COc1cc(/C=C/C(=O)O/N=C(\Cn2ccnc2)c2ccc3c(c2)OCO3)ccc1O | 39.4 | 89.4 | 67.6 |  |
| O=c1c(O)c(-c2ccc(O)c(O)c2)oc2cc(O)cc(O)c12 [QUERCETIN] |  | 91.3 | 52.8 |  |
| O=C(CCCC[C@@H]1CCSS1)O/N=C(\Cn1ccnc1)c1ccc2c(c1)OCO2 | 51.8 | 97.5 | 99.7 | inhibition [6]: 54.9%; EC50 (BV-2 [4]): 760 nM; Activity (HT-22): 67.7%; inhibition [9]: inactive; Activity (PC12): Dose-Dependent Effect; viability at 20 µM [5]: > 95%; viability at 20 µM [8]: > 90% |
| O=C(Cn1ccnc1)c1ccc2c(c1)OCO2 | 21.5 | 97.9 | 61.6 |  |
| COc1ccc(/C=C/C(=O)O/N=C(\Cn2ccnc2)c2ccc3c(c2)OCO3)cc1 | 45.6 | 95.9 | 91.3 |  |

| Structure (SMILES) | Activity (BV-2 [1]) [%] | viability at 10 µM [2] [%] | Activity (BV-2 [3]) [%] | other results |
| --- | --- | --- | --- | --- |
| C#CCO/N=C(\Cn1cnc(CO)c1C)c1ccc2c(c1)OCO2 | 27.6 | 75.8 | 48.7 |  |
| FCCCO/N=C(\Cn1ccnc1)c1ccc2c(c1)OCO2 | 31.1 | 87.7 | 65 |  |
| [18F]CCO/N=C(\Cn1ccnc1)c1ccc2c(c1)OCO2 |  |  |  | Drug uptake [10]: Not Active; Drug uptake [11]: 18.1 %ID/cc; Drug uptake [12]: Not Active; Drug uptake [13]: Not Active; Drug uptake [14]: Not Active; Drug uptake [15]: 5 %ID/cc; Drug uptake [16]: Not Active; Drug uptake [17]: 3.8 %ID/cc; Drug uptake [18]: Active; Drug uptake [19]: Active; Drug uptake [20]: Active; Drug uptake [21]: 7.4 %ID/cc; Drug uptake [22]: 5.2 %ID/cc; Drug uptake [23]: Not Active; Drug uptake [24]: Active |
| c1cn(CCc2ccc3c(c2)OCO3)cn1 | 19.6 | 93.3 | 47.9 |  |
| O=C(CCCCCO/N=C(\Cn1ccnc1)c1ccc2c(c1)OCO2)NO | 42.7 | 111 | 82.9 | EC50 (BV-2 [4]): 1090 nM; inhibition [7]: Active; Activity (HT-22): 66.7%; Activity (PC12): Dose-Dependent Effect; viability at 20 µM [5]: > 95%; viability at 20 µM [8]: > 90% |
| FCCO/N=C(\Cn1ccnc1)c1ccc2c(c1)OCO2 | 69.5 | 116 | 99.4 | Activity (BV-2 [25]): Active; Activity (BV-2 [26]): Dose-Dependent Effect; inhibition [6]: 60.1%; Activity (BV-2 [27]): Dose-Dependent Effect; Activity (BV-2 [28]): Dose-Dependent Effect; EC50 (BV-2 [4]): 490 nM; Activity (BV-2 [29]): Active; inhibition [7]: Active; Activity (HT-22): 66.6%; Activity (PC12): Dose-Dependent Effect; viability at 20 µM [5]: > 95%; Activity (BV-2 [30]): Dose-Dependent Effect; viability at 20 µM [8]: > 90% |
| FCCOCCOCCO/N=C(\Cn1ccnc1)c1ccc2c(c1)OCO2 | 24.4 | 99.9 | 53.9 |  |
| C#CCO/N=C(\Cn1ccnc1)c1ccc(C(=O)OCC)cc1 | 34.8 | 115 | 73.5 |  |
| CN(C)c1ccc(/C(Cn2ccnc2)=N/OC(=O)/C=C/c2ccccc2)cc1 | 39.2 | 92.8 | 41.8 |  |
| COC(=O)CCCCCO/N=C(\Cn1ccnc1)c1ccc2c(c1)OCO2 | 35.4 | 116 | 76 |  |
| C#CCO/N=C(\Cn1ccnc1)c1ccc2c(c1)OCO2 | 45.2 | 95.9 | 84.5 | EC50 (BV-2 [4]): 1180 nM; Activity (PC12): Dose-Dependent Effect; viability at 20 µM [5]: > 95% |
| CN(C)c1ccc(/C(Cn2ccnc2)=N/OC/C=C/c2ccccc2)cc1 | 22.5 | 98.1 | 40.7 |  |
| CN(C)c1ccc(/C(Cn2ccnc2)=N/OC(=O)/C=C/c2ccccc2Cl)cc1 | 38.8 | 105 | 65.8 |  |
| COC(Cn1ccnc1)c1ccc2c(c1)OCO2 (racemic) | 17.9 | 76.1 | 28 |  |
| O=C(O/N=C(\Cn1ccnc1)c1ccc2c(c1)OCO2)C12CC3CC(CC(C3)C1)C2 | 44.1 | 113 | 88.4 |  |
| O=C(/C=C/c1ccc2c(c1)OCO2)O/N=C(\Cn1ccnc1)c1ccc2c(c1)OCO2 | 35.8 | 85.2 | 73 |  |
